The source of these data is patent publication US10647700B2, “EZH2 inhibitor and use thereof” (TARAPEUTICS SCIENCE INC., priority 2017, dated 2020).

pIC50: −log10 of the molar value.

The target of one assay is EZH2 (Homo sapiens (Human), UniProt Q15910). Description: E-cadherin promoter luciferase reporter gene primary screening in 293T cells. In kind it is cell-based. The note with it: 293T cells treated for 24 hours, Dual-Glo luciferase. From the text: EZH2 suppresses the expression of downstream E-cadherin, and upon EZH2 suppression, expression of E-cadherin will increase. Based on such principle, a reporter gene expression vector was constructed using luciferase.
The amplified fragments after PCR and the PGL4.1 vector (purchased from TAKARA, Japan) were respectively subjected to enzyme digestion with SacI and BglII (purchased from TAKARA, Japan), and then purified with PCR cleanup kit (Axygen PCR cleanup kit). Subsequently, the purified and enzyme-digested PCR products was ligated to the purified and enzyme-digested PGL4.1 vector using ligase solution I (DNA Ligation Kit Ver.2.1, purchased from TAKARA, Japan), and subjected to transformation. Single clones were then screened out and subjected to sequencing, and the obtained positive plasmid containing promoter fragments of Ecadherin was named E-cadherin RE-PGL4.1.
Meanwhile, a Renilla fluorescent vector was constructed using PCDNA4.1 (purchased from Thermofisher, USA) as the template to amplify the fragment of CMV promoter. After enzymatic digestion of the amplified CMV sequences and pGL4.70 vector (purchased from Promega, USA) with KpnI and XhoI (purchased from Promega, USA), purification was conducted with PCR cleanup kit (Axygen PCR cleanup kit). Then the enzyme-digested PCR product was ligated to the enzyme-digested PGL4.70 vector using ligase solution I (DNA Ligation Kit Ver.2.1, purchased from TAKARA, Japan) and the resultant was subjected to transformation. Subsequently single clones were screened and subjected to sequencing, and the obtained plasmid that contained CMV sequence was named as Plasmid Renilla luciferase-pGL4.70. Said plasmid utilized CMV promoter to achieve high expression of Renilla luciferase, which served as the control fluorescence for the primary screening system.
The cells were firstly added with 20 μL Dual-Glo® Luciferase Assay Reagent, then incubated under room temperature for 10 minutes, and read on microplate reader Spectramax i3 (Molecular Devices, USA) to obtain the data of primary screening, which is shown in Table 1.
On the technique in general: Reporter assays use an easily measured gene product as a stand-in for the process of interest.

For assay [1], the system named is H3K27m3 methylation in Pfeiffer cells. Description: Western Blot of H3K27m3 methylation in Pfeiffer cells. In kind it is cell-based. The settings on record: Homo sapiens, 72 hours treatment, H3K27m3 methylation by Western Blot. As to the method:
Meanwhile, the inventors further conducted Western Blot with Pfeiffer cells (purchased from ATCC, USA) for verification. […] Effect of compounds on H3K27m3 methylation in cells was assessed.
A general note: A western blot detects proteins with antibodies after separation by electrophoresis.

Assay [2] has as its target PRC2 protein complex comprising EZH2(Y641F) (Homo sapiens (Human), UniProt Q15910, Y641F). Description: EZH2(Y641F) TR-FRET enzymatic activity assay. The settings on record: for activity compared with control compounds in the assay using a TR-FRET kit: versus GSK126 and EPZ6438.
Method: Subsequently 5 μL of the assay antibody, H3K27me3-Eu(K)Ab (purchased from cisbio bioassays, USA, #61 KC3KAE) and 5 μL Streptavidin-XL665 (purchased from cisbio bioassays, USA, #610SAXLA), were added and incubated for 1 hour at room temperature.

PRC2 protein complex comprising EZH2(Y641F), sequence (Q15910 whole entry Y641F): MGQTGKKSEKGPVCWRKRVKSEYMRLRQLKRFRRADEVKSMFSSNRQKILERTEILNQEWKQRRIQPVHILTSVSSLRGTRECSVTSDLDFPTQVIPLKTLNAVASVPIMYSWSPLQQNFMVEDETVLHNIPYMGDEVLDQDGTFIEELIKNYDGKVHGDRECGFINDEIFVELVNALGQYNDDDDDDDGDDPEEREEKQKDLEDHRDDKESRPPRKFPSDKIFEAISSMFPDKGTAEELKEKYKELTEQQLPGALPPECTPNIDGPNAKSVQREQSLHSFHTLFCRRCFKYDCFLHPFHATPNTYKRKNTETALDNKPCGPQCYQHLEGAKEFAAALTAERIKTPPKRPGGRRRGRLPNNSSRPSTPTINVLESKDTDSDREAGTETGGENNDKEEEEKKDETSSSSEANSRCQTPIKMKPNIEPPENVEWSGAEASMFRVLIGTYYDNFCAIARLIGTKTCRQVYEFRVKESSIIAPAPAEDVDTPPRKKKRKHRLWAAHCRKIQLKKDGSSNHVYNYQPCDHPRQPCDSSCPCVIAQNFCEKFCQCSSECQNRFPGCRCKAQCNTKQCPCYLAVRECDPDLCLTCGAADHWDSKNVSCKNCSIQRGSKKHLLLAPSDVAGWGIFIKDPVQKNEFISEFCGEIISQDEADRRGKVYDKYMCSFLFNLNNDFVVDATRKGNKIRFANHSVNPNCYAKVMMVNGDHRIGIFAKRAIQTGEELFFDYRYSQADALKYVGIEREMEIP
PRC2 protein complex comprising EZH2(Y641F), sequence (O75530 whole entry partner): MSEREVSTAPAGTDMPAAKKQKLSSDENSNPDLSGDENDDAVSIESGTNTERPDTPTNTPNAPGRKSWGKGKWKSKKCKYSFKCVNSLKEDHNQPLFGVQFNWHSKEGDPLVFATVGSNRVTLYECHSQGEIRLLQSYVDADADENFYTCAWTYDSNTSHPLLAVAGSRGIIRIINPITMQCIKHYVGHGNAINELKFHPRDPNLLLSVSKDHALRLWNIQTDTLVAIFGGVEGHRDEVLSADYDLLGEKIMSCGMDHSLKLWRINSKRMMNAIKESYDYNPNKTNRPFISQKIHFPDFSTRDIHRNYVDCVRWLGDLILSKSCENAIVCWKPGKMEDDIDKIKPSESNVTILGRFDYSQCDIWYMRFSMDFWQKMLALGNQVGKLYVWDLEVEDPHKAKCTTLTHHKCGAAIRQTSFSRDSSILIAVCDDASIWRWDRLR
PRC2 protein complex comprising EZH2(Y641F), sequence (Q15022 whole entry partner): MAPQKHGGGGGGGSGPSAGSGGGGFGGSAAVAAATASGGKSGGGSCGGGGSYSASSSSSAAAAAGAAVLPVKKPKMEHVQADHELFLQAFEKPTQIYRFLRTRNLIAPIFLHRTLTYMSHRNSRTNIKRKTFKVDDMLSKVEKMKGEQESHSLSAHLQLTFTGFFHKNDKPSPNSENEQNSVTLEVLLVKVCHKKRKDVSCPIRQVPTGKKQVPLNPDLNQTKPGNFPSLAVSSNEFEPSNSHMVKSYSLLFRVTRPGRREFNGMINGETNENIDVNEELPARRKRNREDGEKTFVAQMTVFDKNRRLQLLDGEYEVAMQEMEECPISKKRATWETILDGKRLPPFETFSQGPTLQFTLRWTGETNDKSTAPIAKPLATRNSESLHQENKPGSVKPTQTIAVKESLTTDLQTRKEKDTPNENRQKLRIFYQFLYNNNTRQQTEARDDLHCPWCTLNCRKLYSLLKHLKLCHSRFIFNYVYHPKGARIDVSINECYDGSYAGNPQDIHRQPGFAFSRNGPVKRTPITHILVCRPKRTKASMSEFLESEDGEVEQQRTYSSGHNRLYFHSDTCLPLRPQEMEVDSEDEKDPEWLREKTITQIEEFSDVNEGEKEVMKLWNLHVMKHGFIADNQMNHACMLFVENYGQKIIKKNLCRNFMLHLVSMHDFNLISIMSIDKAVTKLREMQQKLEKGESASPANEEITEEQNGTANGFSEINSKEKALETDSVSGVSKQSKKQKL
PRC2 protein complex comprising EZH2(Y641F), sequence (Q09028 whole entry partner): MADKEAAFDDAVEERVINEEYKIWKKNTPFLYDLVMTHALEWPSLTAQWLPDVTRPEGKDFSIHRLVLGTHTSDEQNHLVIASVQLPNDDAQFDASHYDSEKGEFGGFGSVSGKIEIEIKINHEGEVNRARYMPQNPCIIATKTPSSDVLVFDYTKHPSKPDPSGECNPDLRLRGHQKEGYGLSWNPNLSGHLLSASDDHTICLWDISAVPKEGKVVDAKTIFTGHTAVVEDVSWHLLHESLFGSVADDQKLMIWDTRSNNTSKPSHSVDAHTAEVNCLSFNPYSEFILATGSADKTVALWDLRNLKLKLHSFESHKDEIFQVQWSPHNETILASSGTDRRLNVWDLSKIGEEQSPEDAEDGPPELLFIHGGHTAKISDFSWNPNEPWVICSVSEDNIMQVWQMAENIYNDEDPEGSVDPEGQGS
PRC2 protein complex comprising EZH2(Y641F), sequence (Q6ZN18 whole entry partner): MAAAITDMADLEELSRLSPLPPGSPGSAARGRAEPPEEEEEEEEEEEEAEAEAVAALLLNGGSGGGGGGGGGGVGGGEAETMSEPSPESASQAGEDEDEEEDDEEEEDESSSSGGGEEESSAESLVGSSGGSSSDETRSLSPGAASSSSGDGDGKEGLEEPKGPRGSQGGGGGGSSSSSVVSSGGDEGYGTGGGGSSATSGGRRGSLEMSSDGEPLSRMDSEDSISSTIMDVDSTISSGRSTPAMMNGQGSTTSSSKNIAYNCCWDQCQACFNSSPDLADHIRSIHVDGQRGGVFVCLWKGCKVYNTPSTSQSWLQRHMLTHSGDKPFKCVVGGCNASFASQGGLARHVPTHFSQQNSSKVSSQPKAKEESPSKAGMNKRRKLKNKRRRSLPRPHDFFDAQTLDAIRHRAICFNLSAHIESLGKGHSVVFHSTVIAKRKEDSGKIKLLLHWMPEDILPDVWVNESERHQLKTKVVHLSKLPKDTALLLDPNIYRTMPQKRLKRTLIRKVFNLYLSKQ
EZH2, sequence (Q15910 whole entry, the tested form may be a part): as the sequence (Q15910 whole entry Y641F) above, with F641Y counted along it
EZH2, sequence (O75530 whole entry partner, the tested form may be a part): as the sequence (O75530 whole entry partner) above
EZH2, sequence (Q15022 whole entry partner, the tested form may be a part): as the sequence (Q15022 whole entry partner) above
EZH2, sequence (Q09028 whole entry partner, the tested form may be a part): as the sequence (Q09028 whole entry partner) above

The term IC50 denotes the midpoint of a concentration-inhibition curve. Low values mean inhibition by little substance, high ones a need for much substance. One may read the pIC50 as the negative decadic logarithm of the IC50, by convention in mol/L. Read a high pIC50 as a low IC50. On to `CCN(C(=O)C1CCCC1)c1cc(-c2ccc(CN3CCNCC3)cc2)cc(C(=O)NCc2c(C)cc(C)[nH]c2=O)c1C` [Compound 25, N-((4,6-dimethyl-2-oxo-1,2-dihydropyridin-3-yl)methyl)-5-(N-ethylcyclopentanecarboxamido)-4-methyl-4′-((4-piperazin-1-yl)methyl)-4-methyl-[1,1′-diphenyl]-3-carboxamide], for which the “1 μM relative fluorescence intensity” value on EZH2 (compound 1 μM) is on record as 116.28. The “10 μM relative fluorescence intensity” value on EZH2 (compound 10 μM) amounted to 228.14. The same molecule returned an IC50 in assay [1] of 0.063 µM. Moreover, in assay [2], the pIC50 is 7.23; the “activity compared with control compounds in the assay using a TR-FRET kit” value (shortened to “activity compared with control compounds”) is “superior activity than control compounds GSK126 and EPZ6438”.

The molecule `CCN(C(=O)C1CC1)c1cc(-c2cnc(N3CCN(CC4CC4)CC3)cc2C)cc(C(=O)NCc2c(C)cc(C)[nH]c2=O)c1C` [Compound 71, 5-(6-(4-(cyclopropylmethyl)piperazin-1-yl)-4-methylpyridin-3-yl)-N-((4,6-dimethyl-2-oxo-1,2-dihydropyridin-3-yl)methyl)-3-(N-ethylcyclopropanecarboxamido)-2-methylbenzamide] showed an IC50 in assay [1] of 0.041 µM. Besides, the “activity compared with control compounds” value in assay [2] is “superior activity than control compounds GSK126 and EPZ6438”.

As to `CCN(C(=O)C1CC1)c1cc(-c2ccc(OCCN3CCOCC3)c(F)c2)cc(C(=O)NCc2c(C)cc(C)[nH]c2=O)c1C` [Compound 74, N-((4,6-dimethyl-2-oxo-1,2-dihydropyridin-3-yl)methyl)-5-(N-ethylcyclopropanecarboxamido)-3′-fluoro-4-methyl-4′-(2-morpholinoethoxyl)-[1,1′-diphenyl]-3-carboxamide], the IC50 in assay [1] is 0.093 µM. For the same molecule, in assay [2], the pIC50 was 7.64; the “activity compared with control compounds” value is “superior activity than control compounds GSK126 and EPZ6438”.
